# Results reported in PMC4780864, “Family-wide Structural Analysis of Human Numb-Associated Protein Kinases” (Structure(London, England:1993), 2016).
# How the values were obtained:
# [1] = biological target: T1, GAK (Homo sapiens, UniProt O14976); assay: biochemical; parameters: Thermal shift assay (DSF, SYPRO Orange), 2 uM kinase domain, mean delta Tm of triplicates versus DMSO; settings: read-out: GAK
# T1 construct: catalytic domain-containing construct
# T1 sequence (O14976 1-1311): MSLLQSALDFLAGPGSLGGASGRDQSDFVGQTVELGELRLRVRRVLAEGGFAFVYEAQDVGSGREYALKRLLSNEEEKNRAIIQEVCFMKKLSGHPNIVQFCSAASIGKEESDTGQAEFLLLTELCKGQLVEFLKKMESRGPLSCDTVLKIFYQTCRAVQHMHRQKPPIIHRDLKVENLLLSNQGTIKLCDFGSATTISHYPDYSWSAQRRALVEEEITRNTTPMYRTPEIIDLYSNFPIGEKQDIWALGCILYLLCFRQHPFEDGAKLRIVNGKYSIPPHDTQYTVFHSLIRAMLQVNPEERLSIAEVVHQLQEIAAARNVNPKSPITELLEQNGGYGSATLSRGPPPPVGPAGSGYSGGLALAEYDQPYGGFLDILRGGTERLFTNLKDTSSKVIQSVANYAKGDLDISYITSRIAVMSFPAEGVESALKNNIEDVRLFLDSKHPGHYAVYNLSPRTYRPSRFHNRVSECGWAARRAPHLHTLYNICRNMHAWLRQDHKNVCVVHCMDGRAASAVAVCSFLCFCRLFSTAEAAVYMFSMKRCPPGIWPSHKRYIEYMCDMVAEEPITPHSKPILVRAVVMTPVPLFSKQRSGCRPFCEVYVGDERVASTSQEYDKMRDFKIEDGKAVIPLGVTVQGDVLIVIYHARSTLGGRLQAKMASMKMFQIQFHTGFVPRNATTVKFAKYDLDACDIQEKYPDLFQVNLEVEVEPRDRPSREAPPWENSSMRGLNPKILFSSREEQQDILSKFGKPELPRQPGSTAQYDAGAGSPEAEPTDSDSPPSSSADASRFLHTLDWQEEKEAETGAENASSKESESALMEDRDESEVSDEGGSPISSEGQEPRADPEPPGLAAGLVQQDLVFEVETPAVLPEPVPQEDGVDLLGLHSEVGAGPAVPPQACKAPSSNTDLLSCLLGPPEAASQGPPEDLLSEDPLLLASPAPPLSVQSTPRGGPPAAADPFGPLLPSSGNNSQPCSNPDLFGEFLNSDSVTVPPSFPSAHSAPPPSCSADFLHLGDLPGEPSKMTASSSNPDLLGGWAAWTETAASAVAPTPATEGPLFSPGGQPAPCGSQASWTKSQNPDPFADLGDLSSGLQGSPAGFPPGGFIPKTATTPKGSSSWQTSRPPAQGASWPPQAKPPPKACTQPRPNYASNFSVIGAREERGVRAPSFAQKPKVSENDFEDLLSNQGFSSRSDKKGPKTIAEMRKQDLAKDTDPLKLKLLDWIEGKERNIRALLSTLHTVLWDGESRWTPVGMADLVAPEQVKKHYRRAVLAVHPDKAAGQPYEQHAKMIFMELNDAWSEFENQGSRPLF
# Method: (§1) All measurements were performed in triplicate and mean values were reported for all compounds (Table S1). […] However, NAKs are often omitted from selectivity panels, including commercial screens.
# [2] = biological target: T2, BIKE (Homo sapiens, UniProt Q9NSY1); assay: biochemical; parameters: Thermal shift assay (DSF, SYPRO Orange), 2 uM kinase domain, mean delta Tm of triplicates versus DMSO; settings: read-out: BIKE
# T2 construct: gene BMP2K; catalytic domain-containing construct
# T2 sequence (Q9NSY1 whole entry, the tested form may be a part): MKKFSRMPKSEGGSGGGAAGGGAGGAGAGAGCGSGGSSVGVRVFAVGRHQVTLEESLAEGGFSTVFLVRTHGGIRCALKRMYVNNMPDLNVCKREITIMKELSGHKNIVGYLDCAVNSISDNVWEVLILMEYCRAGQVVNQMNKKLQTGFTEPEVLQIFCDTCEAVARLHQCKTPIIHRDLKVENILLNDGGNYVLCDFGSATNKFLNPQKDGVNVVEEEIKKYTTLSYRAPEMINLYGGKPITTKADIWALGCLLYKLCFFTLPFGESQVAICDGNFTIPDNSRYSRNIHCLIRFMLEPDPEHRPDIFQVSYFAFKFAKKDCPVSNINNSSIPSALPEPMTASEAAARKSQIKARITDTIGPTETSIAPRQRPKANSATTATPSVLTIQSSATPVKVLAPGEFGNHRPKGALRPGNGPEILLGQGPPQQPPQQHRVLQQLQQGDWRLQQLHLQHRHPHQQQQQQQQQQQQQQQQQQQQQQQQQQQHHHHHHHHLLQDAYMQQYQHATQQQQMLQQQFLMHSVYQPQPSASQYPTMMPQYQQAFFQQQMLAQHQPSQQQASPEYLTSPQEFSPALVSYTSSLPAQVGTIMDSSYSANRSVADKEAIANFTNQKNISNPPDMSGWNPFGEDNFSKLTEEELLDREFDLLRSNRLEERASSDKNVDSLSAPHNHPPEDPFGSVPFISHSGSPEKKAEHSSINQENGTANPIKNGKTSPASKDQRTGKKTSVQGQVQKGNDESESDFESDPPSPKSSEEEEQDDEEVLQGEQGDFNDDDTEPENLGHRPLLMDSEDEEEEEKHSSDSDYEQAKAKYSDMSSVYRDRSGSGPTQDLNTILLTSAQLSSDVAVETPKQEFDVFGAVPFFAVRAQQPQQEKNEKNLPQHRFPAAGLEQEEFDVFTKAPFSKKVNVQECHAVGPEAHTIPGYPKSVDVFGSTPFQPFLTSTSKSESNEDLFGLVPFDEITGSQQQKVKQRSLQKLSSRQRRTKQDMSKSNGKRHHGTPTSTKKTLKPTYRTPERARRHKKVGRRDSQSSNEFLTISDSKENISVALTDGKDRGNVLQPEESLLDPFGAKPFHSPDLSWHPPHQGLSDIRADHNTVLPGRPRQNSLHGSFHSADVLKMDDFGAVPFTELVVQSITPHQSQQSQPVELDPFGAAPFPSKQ
# Method: as §1
# [3] = biological target: T3, MPSK1 (Homo sapiens, UniProt O75716); assay: biochemical; parameters: Thermal shift assay (DSF, SYPRO Orange), 2 uM kinase domain, mean delta Tm of triplicates versus DMSO; settings: read-out: MPSK1
# T3 construct: gene STK16; catalytic domain-containing construct
# T3 sequence (O75716 whole entry, the tested form may be a part): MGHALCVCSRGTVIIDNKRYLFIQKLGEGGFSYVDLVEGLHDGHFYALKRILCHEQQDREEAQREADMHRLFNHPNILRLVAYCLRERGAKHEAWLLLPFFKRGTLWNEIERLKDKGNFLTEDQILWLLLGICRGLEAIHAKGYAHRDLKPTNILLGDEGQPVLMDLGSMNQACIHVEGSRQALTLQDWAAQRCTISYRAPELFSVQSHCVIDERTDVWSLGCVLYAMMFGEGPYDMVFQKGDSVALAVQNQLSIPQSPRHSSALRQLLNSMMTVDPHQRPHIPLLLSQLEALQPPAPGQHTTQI
# Method: as §1
# [4] = biological target: T4, AAK1 (Homo sapiens, UniProt Q2M2I8); assay: biochemical; parameters: kinase domain; Thermal shift assay (DSF, SYPRO Orange), 2 uM kinase domain, mean delta Tm of triplicates versus DMSO; settings: read-out: AAK1
# T4 sequence (Q2M2I8 27-365 limits assumed): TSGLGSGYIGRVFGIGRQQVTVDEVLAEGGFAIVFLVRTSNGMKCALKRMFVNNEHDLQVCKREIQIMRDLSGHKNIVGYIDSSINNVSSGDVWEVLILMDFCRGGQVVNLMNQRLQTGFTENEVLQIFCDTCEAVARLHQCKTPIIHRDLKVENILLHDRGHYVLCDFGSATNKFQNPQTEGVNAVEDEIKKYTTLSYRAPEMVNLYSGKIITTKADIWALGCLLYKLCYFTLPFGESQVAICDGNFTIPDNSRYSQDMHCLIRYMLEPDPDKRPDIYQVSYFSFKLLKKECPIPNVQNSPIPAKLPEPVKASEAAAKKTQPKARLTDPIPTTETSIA
# Method: as §1
# [5] = biological target: T4, AAK1; assay: ITC; thermal shift
# [6] = biological target: T5, BIKE (Homo sapiens, UniProt Q9NSY1, K320A/K321A); assay: co-crystal structure ([…] Å); ITC; thermal shift; type: binding
# T5 construct: gene BMP2K; BIKE38–345 (kinase domain)
# T5 sequence (Q9NSY1 38-345 K320A/K321A): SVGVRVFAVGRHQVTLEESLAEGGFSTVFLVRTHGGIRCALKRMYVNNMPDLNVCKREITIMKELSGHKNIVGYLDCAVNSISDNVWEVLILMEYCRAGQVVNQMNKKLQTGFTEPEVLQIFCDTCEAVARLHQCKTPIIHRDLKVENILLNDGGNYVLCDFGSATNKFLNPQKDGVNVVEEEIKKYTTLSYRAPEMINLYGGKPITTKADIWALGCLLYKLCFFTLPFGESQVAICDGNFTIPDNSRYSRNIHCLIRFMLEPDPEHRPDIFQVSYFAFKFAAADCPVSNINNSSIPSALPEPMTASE
Structure (SMILES),ΔTm at 12.5 µM [1] [°C],ΔTm at 12.5 µM [2] [°C],ΔTm at 12.5 µM [3] [°C],ΔTm at 12.5 µM [4] [°C],Kd [5] [nM],Kd [6] [nM]
NC(=O)Nc1cc(-c2cccc(F)c2)sc1C(=O)N[C@H]1CCCNC1 [AZD7762],5.39,12.6,3.46,10.8,36.5,33.1
Cn1c(=O)n(-c2ccc(C(C)(C)C#N)cc2)c2c3cc(-c4cnc5ccccc5c4)ccc3ncc21 [Dactolisib],-0.05,0.873,1.49,0.747,–,–
CCN1CCN(c2ccc(Nc3cc(N(C)C(=O)Nc4c(Cl)c(OC)cc(OC)c4Cl)ncn3)cc2)CC1 [NVP-BGJ398],-0.197,0.763,0.66,0.41,–,–
Cc1cn(-c2cc(NC(=O)c3ccc(C)c(Nc4nccc(-c5cccnc5)n4)c3)cc(C(F)(F)F)c2)cn1 [Nilotinib],5.36,1.06,2.48,1.13,–,–
O=C1NC(=O)[C@@H](c2cn3c4c(cccc24)CCC3)[C@@H]1c1c[nH]c2ccccc12 [Tivantinib],-0.823,0.697,0.87,0.46,–,–
COc1cc(Nc2ncc3c(n2)-c2ccc(Cl)cc2C(c2c(F)cccc2OC)=NC3)ccc1C(=O)O [Alisertib],-0.237,0.78,2.32,0.29,–,–
CCc1cnn2c(NCc3ccc[n+]([O-])c3)cc(N3CCCC[C@H]3CCO)nc12 [Dinaciclib],-1.13,0.5,1,0.23,–,–
CN(C)C/C=C/C(=O)Nc1cc2c(Nc3ccc(F)c(Cl)c3)ncnc2cc1O[C@H]1CCOC1 [Afatinib],3.38,1.95,0.897,1.31,–,–
